The target in data set [1] is Cyclin-dependent kinase 4 (Homo sapiens, UniProt P11802). The experiment in a line: Inhibition of CDK4 by radioactive glutathione plate-binding assay.
The target of data set [2] is Cyclin-dependent kinase 2 (Homo sapiens, UniProt P24941). Put plainly: Inhibition of human CDK2 by HTRF assay. For orientation: In TR-FRET formats the signal depends on donor and acceptor labels being close together.
The target in data set [3] is Glycogen synthase kinase-3 beta (Homo sapiens, UniProt P49841). The experiment in a line: Inhibition of GSK3-beta by scintillation proximity assay. In general terms: In a scintillation proximity assay essentially only radioactivity close to the scintillant gives light.
Glycogen synthase kinase-3 beta, sequence (P49841 whole entry): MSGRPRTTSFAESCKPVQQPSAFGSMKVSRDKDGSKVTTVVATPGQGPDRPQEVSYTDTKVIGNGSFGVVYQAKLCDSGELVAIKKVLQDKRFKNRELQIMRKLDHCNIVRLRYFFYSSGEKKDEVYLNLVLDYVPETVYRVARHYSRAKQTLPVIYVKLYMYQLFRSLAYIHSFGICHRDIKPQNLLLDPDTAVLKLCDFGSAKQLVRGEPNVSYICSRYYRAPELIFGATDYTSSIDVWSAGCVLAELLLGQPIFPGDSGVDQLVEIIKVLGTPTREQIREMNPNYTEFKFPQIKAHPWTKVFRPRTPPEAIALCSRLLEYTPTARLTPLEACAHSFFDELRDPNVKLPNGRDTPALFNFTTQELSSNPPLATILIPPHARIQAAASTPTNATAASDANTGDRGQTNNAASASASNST
The subject of data set [4] is Mus musculus. Put plainly: Dose normalized AUC in orally dosed mouse. The format is ADME, organism-based. The conditions noted are these: in vivo, po.
In data set [5] the target is Vascular endothelial growth factor receptor 2 (Homo sapiens, UniProt P35968). The experiment in a line: Inhibition of VEGFR2 by HTRF assay.
Vascular endothelial growth factor receptor 2, sequence (P35968 whole entry): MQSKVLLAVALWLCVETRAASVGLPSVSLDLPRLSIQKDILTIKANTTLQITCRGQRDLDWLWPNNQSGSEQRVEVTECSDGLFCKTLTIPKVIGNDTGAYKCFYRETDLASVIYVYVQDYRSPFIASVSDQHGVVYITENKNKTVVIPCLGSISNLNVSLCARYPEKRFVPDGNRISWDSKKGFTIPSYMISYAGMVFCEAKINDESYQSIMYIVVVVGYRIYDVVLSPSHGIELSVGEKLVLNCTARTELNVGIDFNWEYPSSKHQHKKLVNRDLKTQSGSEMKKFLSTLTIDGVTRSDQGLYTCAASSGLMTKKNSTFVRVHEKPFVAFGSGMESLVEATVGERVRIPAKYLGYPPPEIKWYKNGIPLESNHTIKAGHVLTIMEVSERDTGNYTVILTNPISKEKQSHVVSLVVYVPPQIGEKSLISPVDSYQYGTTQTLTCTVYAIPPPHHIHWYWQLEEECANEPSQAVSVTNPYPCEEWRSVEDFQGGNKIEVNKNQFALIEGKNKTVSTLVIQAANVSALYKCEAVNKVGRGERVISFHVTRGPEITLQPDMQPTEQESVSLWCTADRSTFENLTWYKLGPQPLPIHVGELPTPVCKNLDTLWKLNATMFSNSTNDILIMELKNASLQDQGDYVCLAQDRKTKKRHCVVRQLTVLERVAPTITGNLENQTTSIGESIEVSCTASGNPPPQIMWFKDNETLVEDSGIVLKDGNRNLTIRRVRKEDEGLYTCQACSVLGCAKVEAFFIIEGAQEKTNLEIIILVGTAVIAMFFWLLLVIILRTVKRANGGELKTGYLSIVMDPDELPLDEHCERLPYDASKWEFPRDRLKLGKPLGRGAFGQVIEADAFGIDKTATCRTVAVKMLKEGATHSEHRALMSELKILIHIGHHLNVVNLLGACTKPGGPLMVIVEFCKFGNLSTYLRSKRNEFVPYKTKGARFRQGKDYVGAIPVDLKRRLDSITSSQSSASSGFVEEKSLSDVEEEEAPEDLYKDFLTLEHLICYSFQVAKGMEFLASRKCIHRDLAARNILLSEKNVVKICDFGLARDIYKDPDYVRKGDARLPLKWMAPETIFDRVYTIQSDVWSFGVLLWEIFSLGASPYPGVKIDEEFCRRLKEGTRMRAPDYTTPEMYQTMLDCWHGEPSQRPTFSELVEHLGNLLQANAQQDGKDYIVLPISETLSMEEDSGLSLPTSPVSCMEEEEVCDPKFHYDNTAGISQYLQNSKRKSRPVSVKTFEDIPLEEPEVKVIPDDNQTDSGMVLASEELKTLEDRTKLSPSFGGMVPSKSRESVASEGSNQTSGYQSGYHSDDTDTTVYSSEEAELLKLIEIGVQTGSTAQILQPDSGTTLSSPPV
A short description of data set [6]: Metabolic stability at mouse liver S9 fraction after 60 mins. The class given is ADME, subcellular. The conditions noted are these: read-out: Stability.
Data set [7] relates to Mus musculus. Put plainly: Dose normalized AUC in ip dosed mouse. The conditions noted are these: in vivo. The class given is ADME, organism-based.

These results are taken from ChEMBL document CHEMBL1143431, “Synthesis and evaluation of pyrazolo[1,5-b]pyridazines as selective cyclin dependent kinase inhibitors” (Bioorg Med Chem Lett, 2008).

pIC50: −log10 of the molar value.

Cyclin-dependent kinase 4, sequence (P11802 whole entry): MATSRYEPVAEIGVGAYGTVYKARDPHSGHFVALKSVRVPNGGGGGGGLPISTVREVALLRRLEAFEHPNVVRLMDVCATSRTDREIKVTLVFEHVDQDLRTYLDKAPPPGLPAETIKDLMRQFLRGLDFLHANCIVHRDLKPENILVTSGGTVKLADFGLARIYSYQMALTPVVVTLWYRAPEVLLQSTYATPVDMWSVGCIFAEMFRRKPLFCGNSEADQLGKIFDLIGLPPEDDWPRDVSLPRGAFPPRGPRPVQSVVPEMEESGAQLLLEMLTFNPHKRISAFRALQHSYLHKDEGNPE

Consider `CCN(CC)Cc1cccc(Nc2nccc(-c3cnn4ncccc34)n2)c1`, for which the negative-log IC50 (pIC50) in data set [1] is 7.92; in data set [2], 7.30; in data set [3], 7.10.
As for `O=[N+]([O-])c1ccc(Nc2nccc(-c3cnn4ncccc34)n2)cc1`, the pIC50 was 8.10 in data set [1], 8.52 in data set [2] and 8.30 in data set [3].
As for `CC(C)c1ccc(Nc2nccc(-c3cnn4ncccc34)n2)cc1` [GW805758X], the pIC50 in data set [2] was 7.40; in data set [3] it was 7.80.
For `CC(C)Oc1ccc2c(-c3ccnc(Nc4ccc(N5CCN(C)CC5)cc4)n3)cnn2n1`, the pIC50 in data set [1] was 7.35; in data set [2], 6.64; in data set [3] it was 6.07.
Turning to `FC(F)(F)CNc1nccc(-c2cnn3ncccc23)n1` [GW683003X], the pIC50 in data set [1] is 6.00; in data set [2] it was 6.00; in data set [3], under 4.49.
For the compound `N#Cc1ccc(Nc2nccc(-c3cnn4ncccc34)n2)cc1`, the negative logarithm of the IC50 (pIC50) in data set [1] was 7.60; in data set [2], 8.70; in data set [3], 8.30.
On to `c1cc(-c2cnn3nc(N4CCOCC4)ccc23)nc(NC2CC2)n1` [GW708336X], for which, in data set [1], the pIC50 was 6.40. For the same compound, the AUC in the data set with Mus musculus [4] is over 1000 ng·kg·h/mg/mL.
`CCCCc1nn2ncccc2c1-c1ccnc(Nc2ccc(N3CCN(C)CC3)cc2)n1`: the values for the negative-log IC50 (pIC50) in data set [1] and in data set [5] were 6.10 and 7.60, respectively.
As for `c1cc(-c2cnn3nc(N4CCCC4)ccc23)nc(NC2CC2)n1`, the results for the negative-log IC50 (pIC50) in data set [1] and in data set [3] were 6.30 and 4.60, respectively.
For `c1cnn2ncc(-c3ccnc(NC4CC4)n3)c2c1`, the remaining at 1 h in data set [6] turned out to be 85%. The pIC50 in data set [1] is 7.10; in data set [5], under 4.70.
With `CN1CCN(c2ccc(Nc3nccc(-c4cnn5ncccc45)n3)cc2)CC1`, the pIC50 in data set [1] is 7.92; in data set [2], 7.00; in data set [5], 6.40; in data set [3], 6.70.
Consider `CN1CCN(c2ccc(Nc3nccc(-c4cnn5nc(-c6ccc(F)cc6)ccc45)n3)cc2)CC1`, for which the pIC50 was 7.59 in data set [1], 6.13 in data set [2] and under 4.60 in data set [3].
Regarding `C=Cc1ccc2c(-c3ccnc(NC4CC4)n3)cnn2n1`, the negative-log IC50 (pIC50) is 6.70 in data set [1] and 5.49 in data set [3].
Turning to `c1cnn2ncc(-c3ccnc(NCCCN4CCOCC4)n3)c2c1` [GW683109X], the pIC50 in data set [1] was 5.49.
Turning to `Fc1ccc(-c2ccc3c(-c4ccnc(NC5CC5)n4)cnn3n2)cc1`, the values for the negative-log IC50 (pIC50) in data set [1] and in data set [3] were 6.60 and under 4.49, respectively.
Turning to `Cc1nn2ncccc2c1-c1ccnc(Nc2ccc(N3CCN(C)CC3)cc2)n1`, the negative-log IC50 (pIC50) was 7.30 in data set [1] and 7.20 in data set [5].
`COc1ccc2c(-c3ccnc(NC4CC4)n3)cnn2n1`: the figures for the pIC50 in data set [1] and in data set [3] were 5.70 and 4.60, respectively.
For `Clc1ccc(CNc2nccc(-c3cnn4ncccc34)n2)cc1` [GW781673X], the pIC50 in data set [1] and in data set [2] was 6.00 each time.
As to `c1cc(-c2cnn3nc(NC4CCCC4)ccc23)nc(NC2CC2)n1`, the pIC50 in data set [1] is 6.80; in data set [3] it was 4.60.
In the case of `CCc1nn2ncccc2c1-c1ccnc(Nc2ccc(N3CCN(C)CC3)cc2)n1`, the pIC50 in data set [1] is 7.60; in data set [5] it was 7.20.
Take `NC(=O)c1ccc(Nc2nccc(-c3cnn4ncccc34)n2)cc1`: the negative-log IC50 (pIC50) in data set [1] was 6.80; in data set [2] it was 7.80; in data set [3] it was 7.70.
Consider `c1cc(Nc2nccc(-c3cnn4ncccc34)n2)cc(-c2cocn2)c1`, for which the figures for the pIC50 in data set [1], in data set [2] and in data set [3] were 7.80, 8.52 and 8.10, respectively.
For the compound `N#Cc1cccc(Nc2nccc(-c3cnn4ncccc34)n2)c1` [GW778894X], the pIC50 in data set [1] is 8.40; in data set [2], 8.70.
In the case of `CC(C)Oc1ccc2c(-c3ccnc(NC4CC4)n3)cnn2n1`, the negative-log IC50 (pIC50) was 5.80 in data set [1] and 4.60 in data set [3]. Also, the AUC in the data set with Mus musculus [4] was over 1000 ng·kg·h/mg/mL.
Turning to `CCN(CC)CCNC(=O)c1cccc(Nc2nccc(-c3cnn4ncccc34)n2)c1`, the pIC50 in data set [1] is 8.10; in data set [2], 7.40; in data set [3], 7.70.
On to `CCCCc1nn2ncccc2c1-c1ccnc(NC2CC2)n1`, for which the results for the negative logarithm of the IC50 (pIC50) in data set [1] and in data set [5] were under 4.40 and 5.60, respectively.
In the case of `O=[N+]([O-])c1cccc(Nc2nccc(-c3cnn4ncccc34)n2)c1`, the pIC50 in data set [1] and in data set [2] was 9.52 in each case.
For `Oc1ccc2c(-c3ccnc(NC4CC4)n3)cnn2n1`, the pIC50 is 5.89 in data set [1] and 4.60 in data set [3].
For the compound `c1csc(-c2ccc3c(-c4ccnc(NC5CC5)n4)cnn3n2)c1`, the pIC50 was 6.60 in data set [1] and under 4.49 in data set [3].
Consider `Cc1nn2ncccc2c1-c1ccnc(NC2CC2)n1`, for which the pIC50 in data set [1] was 6.10; in data set [5] it was under 4.70.
On to `CN(C)CC(O)COc1ccc(Nc2nccc(-c3cnn4nc(N5CCOCC5)ccc34)n2)cc1` (stereo not given), for which the remaining at 1 h in data set [6] was 46%. The pIC50 in data set [1] was 7.42. This compound also gave an AUC in the data set on Mus musculus [7] of over 7000 ng·kg·h/mg/mL.
`CCc1nn2ncccc2c1-c1ccnc(NC2CC2)n1` [GW683768X]: the negative-log IC50 (pIC50) in data set [1] was 5.70; in data set [5], 5.49.
With `O=C(O)c1ccc(Nc2nccc(-c3cnn4ncccc34)n2)cc1`, the pIC50 in data set [1] is 6.10; in data set [2], 7.40; in data set [3], 7.30.

What is called pIC50 is the negative decadic logarithm of the IC50, by convention in mol/L.
